Values of other authors in patent publication US5744455A (priority 1993, dated 1998).
Like-named read-outs stand apart in the source and are kept apart here. Values belong to the compound of their own block, whether it stands above or below them.

Legend:
[1] = test system: doxorubicin cardiotoxicity; conditions: non-cancer-bearing animals
[2] = test system: human tumors; conditions: single agents
[3] = test system: doxorubicin-induced toxicity; conditions: humans and other species
[4] = test system: erythrocyte ghost
[5] = not given; remark: listed apart in the source
[6] = test system: daunorubicin cardiotoxicity; conditions: ICRF 187 given prior to daunorubicin
[7] = test system: heart lesions; conditions: doxorubicin and ICRF 187
[8] = test system: chronic cardiotoxicity induced by Adriamycin; conditions: ICRF 187 12.5 mg/kg 30 minutes prior to Adriamycin 1.0 mg/kg
[9] = test system: chronic daunorubicin cardiotoxicity; conditions: 30 minutes prior to daunorubicin, 12.5 and 25 mg/kg
[10] = not given; remark: listed apart in the source
[11] = not given; remark: listed apart in the source
[12] = test system: myocardial lesions; conditions: doxorubicin alone
[13] = test system: cardiac glutathione peroxidase

- solubility: low solubility
Structure (SMILES): CC(CN1CC(=O)NC(=O)C1)N1CC(=O)NC(=O)C1 (racemic) [ICRF 159, (±)-1,2-bis(3,5-dioxopiperazinyl-1-yl)propane]
- doxorubicin cardioprotection [1]: shown promise
- anti-tumor effect as single agent [2]: little effect against human tumors

Structure (SMILES): Cc1c(C)c2c(c(C)c1O)CCC(C)(CCCC(C)CCCC(C)CCCC(C)C)O2 (stereo not drawn) [Alpha-tocopherol]
- cardioprotection against doxorubicin-induced toxicity [3]: did not result in significant cardioprotection

Structure (SMILES): O=C(O)CN(CCN(CC(=O)O)CC(=O)O)CC(=O)O [EDTA, ethylenediaminetetraacetic acid]
- erythrocyte ghost destruction by iron-doxorubicin complex [4]: can prevent erythrocyte ghost destruction

- oral absorption [5]: very poor absorption
Structure (SMILES): O=c1[nH]cc(F)c(=O)[nH]1 [Fluorouracil, fluorouracil]

Structure (SMILES): C[C@@H](CN1CC(=O)NC(=O)C1)N1CC(=O)NC(=O)C1 [ICRF 187, (+)-1,2-bis(3,5-dioxopiperazinyl-1-yl)propane]
- solubility: more water soluble
- doxorubicin cardioprotection [1]: shown promise
- daunorubicin lethality and cardiotoxicity [6]: a reduction of lethality and cardiotoxicity
- anti-tumor effect as single agent [2]: little effect against human tumors
- dogs with no abnormalities in the hearts [7]: three of six
- dogs with minimal heart lesions ([7]; six dogs): three
- Adriamycin-induced chronic cardiotoxicity [8]: prevented cardiotoxicity in all treated animals
- chronic daunorubicin cardiotoxicity [9]: reduced
- SGOT and SGPT, vomiting, alopecia ([10]; 1500 mg/m^2): mild elevations of SGOT (serum glutamate-oxalate transaminase) and SGPT (serum glutamic-pyruvic transaminase), occasional vomiting and some alopecia
- predominant adverse effects ([10]; 1500 mg/m^2): leukopenia and thrombocytopenia
- dose limiting toxicity ([10]; administered three times daily, every three days, only chemotherapeutic agent): 1500 mg/m^2
- dose limiting toxicity ([10]; daily, for three consecutive days every three weeks): 1500 mg/m^2

Structure (SMILES): CC(=O)N[C@@H](CS)C(=O)O [N-acetyl cysteine]
- cardioprotection against doxorubicin-induced toxicity [3]: did not result in significant cardioprotection

Structure (SMILES): COc1cccc2c1C(=O)c1c(O)c3c(c(O)c1C2=O)C[C@@](O)(C(=O)CO)C[C@@H]3O[C@H]1C[C@H](N)[C@H](O)[C@H](C)O1 [doxorubicin]
- risk for development of cardiotoxicity ([11]; accumulated doses greater than 450 mg/m^2): greater than 10%
- alopecia (hair loss) ([11]; human, in vivo): occurs frequently
- nausea and vomiting ([11]; human, in vivo): occur regularly
- peak of myelosuppression ([11]; human, in vivo): approximately 14±2 days
- recovery from myelosuppression ([11]; human, in vivo): 15 to 18 days
- cardiotoxicity on prolonged infusion ([11]; infusion over extended periods, e.g., 96 hours): small but measurable decrease in cardiotoxicity
- patients developing unacceptable clinical toxicity ([11]; total cumulative dose 450 mg/m^2): 5-10%
- animals with myocardial lesions [12]: eight of nine
- cardiac glutathione peroxidase activity [13]: directly depresses cardiac glutathione peroxidase activity
